Test results taken from DBAASP.
Values after ≈ are worked out from the molar mass of the structure shown. Blank lines part the entries; values can stand above or below the compound they belong to.

Experiments:
Test in all cases: ≥ marks a high value that may be exact or a test limit, other limits are often not marked, values filed in µg/mL are converted to µM
[1] = system: Staphylococcus aureus ATCC 43300
Yersinia enterocolitica = system: Yersinia enterocolitica
[2] = system: Escherichia coli ATCC 25922
Escherichia coli = system: Escherichia coli
Salmonella sp. = system: Salmonella sp.
[3] = system: Staphylococcus aureus ATCC 29213
[4] = system: Salmonella enterica subsp. enterica serovar Enteritidis
[5] = system: Cryptococcus neoformans ATCC 208821
[6] = system: Candida albicans ATCC 90028
[7] = system: Staphylococcus aureus SH1000
[8] = system: Pseudomonas aeruginosa ATCC 27853
[9] = system: Klebsiella pneumoniae ATCC 700603
[10] = system: Acinetobacter baumannii ATCC 19606
[11] = system: Staphylococcus aureus FDA 209P
[12] = system: Escherichia coli ATCC 15597
[13] = system: Salmonella typhimurium DA6192
[14] = system: Klebsiella pneumoniae NCTC 5055
[15] = system: Staphylococcus aureus ATCC 6538
[16] = system: Micrococcus luteus ATCC 49732
[17] = system: Bacillus subtilis ATCC 6633
[18] = system: Pseudomonas aeruginosa PAO1
Staphylococcus aureus MR = system: Staphylococcus aureus MR
[19] = system: Pseudomonas aeruginosa ATCC 15442
[20] = system: Candida albicans ATCC 10231
Escherichia coli D31 = system: Escherichia coli D31
[21] = system: Streptococcus mutans ATCC 25175
[22] = system: Staphylococcus aureus ATCC 25923
[23] = system: Staphylococcus aureus ATCC 12600
Escherichia coli O111 = system: Escherichia coli O111

SMILES: CC[C@H](C)[C@H](NC(=O)[C@H](CCC(N)=O)NC(=O)[C@@H](N)CCCN=C(N)N)C(=O)N[C@H](C(=O)N[C@@H](CCCN=C(N)N)C(=O)N[C@@H](CCCN=C(N)N)C(=O)N[C@@H](CCSC)C(=O)N[C@@H](CCC(N)=O)C(=O)N[C@@H](CCCN=C(N)N)C(N)=O)[C@@H](C)CC [RQIIRRMQR]
MIC [1]: > 39.8 µM
MIC (Yersinia enterocolitica): ≥ 39.8 µM
MIC [2]: > 39.8 µM
MIC (Escherichia coli): > 39.8 µM
MIC (Salmonella sp.): ≥ 39.8 µM
MIC [3]: > 39.8 µM
MIC [4]: ≥ 39.8 µM

SMILES: CC[C@H](C)[C@H](NC(=O)[C@H](CC(=O)O)NC(=O)[C@H](Cc1ccccc1)NC(=O)[C@H](CC(C)C)NC(=O)CN)C(=O)N[C@H](C(=O)N[C@@H](CCCCN)C(=O)N[C@@H](CCCCN)C(=O)N[C@H](C(=O)N[C@H](C(=O)NCC(=O)N[C@@H](C)C(=O)N[C@@H](CC(C)C)C(=O)N[C@@H](CCCCN)C(N)=O)C(C)C)C(C)C)C(C)C [GLFDIVKKVVGALK]
MIC [5]: 22 µM (≈ 32.7 µg/mL)
MIC [6]: 22 µM (≈ 32.7 µg/mL)
MIC [7]: ≥ 33 µM
MIC [1]: > 22 µM
MIC [2]: > 22 µM
MIC [8]: > 22 µM
MIC [9]: > 22 µM
MIC [10]: > 22 µM

SMILES: CC[C@H](C)[C@H](NC(=O)[C@H](CCCCN)NC(=O)[C@H](CCC(N)=O)NC(=O)[C@H](CC(C)C)NC(=O)[C@@H](N)Cc1ccccc1)C(=O)N[C@H](C(=O)NCC(=O)N[C@@H](C)C(=O)N[C@@H](CC(C)C)C(=O)NCC(=O)N[C@@H](Cc1cnc[nH]1)C(=O)N[C@@H](CC(C)C)C(=O)N[C@@H](Cc1ccccc1)C(N)=O)[C@@H](C)CC [FLQKIIGALGHLF]
MIC [18]: > 100 µM
MIC (Staphylococcus aureus MR): 12.5 µM (≈ 18.2 µg/mL)
MIC [1]: 6.2 µM (≈ 9.03 µg/mL)
MIC [2]: 12.5 µM (≈ 18.2 µg/mL)
MIC [19]: 6.2 µM (≈ 9.03 µg/mL)
MIC [20]: > 100 µM
MIC (Escherichia coli D31): ≥ 100 µM
MIC [21]: 6.2 µM (≈ 9.03 µg/mL)
MIC [17]: ≥ 100 µM
MIC [22]: 3.1 µM (≈ 4.51 µg/mL)

SMILES: CC[C@H](C)[C@H](NC(=O)[C@H](CCCCN)NC(=O)[C@@H]1CCCN1C(=O)[C@H](CCC(N)=O)NC(=O)[C@@H](N)CCCN=C(N)N)C(=O)N1CCC[C@H]1C(=O)N[C@@H](CCCN=C(N)N)C(=O)N[C@@H](CCSC)C(=O)N1CCC[C@H]1C(=O)N[C@@H](Cc1c[nH]c2ccccc12)C(=O)N[C@@H](CCCN=C(N)N)C(N)=O [RQPKIPRMPWR]
MIC [1]: > 34.1 µM
MIC (Yersinia enterocolitica): ≥ 34.1 µM
MIC [2]: > 34.1 µM
MIC (Escherichia coli): > 34.1 µM
MIC (Salmonella sp.): ≥ 34.1 µM
MIC [3]: > 34.1 µM
MIC [4]: ≥ 34.1 µM

SMILES: CC[C@H](C)[C@H](NC(=O)[C@H](CC(=O)O)NC(=O)[C@H](Cc1ccccc1)NC(=O)[C@H](CC(C)C)NC(=O)CN)C(=O)N[C@H](C(=O)N[C@@H](CCCCN)C(=O)N[C@@H](CCCCN)C(=O)N[C@H](C(=O)N[C@@H](CC(C)C)C(=O)N[C@@H](CCCCN)C(=O)N[C@@H](CC(C)C)C(=O)N[C@@H](CC(C)C)C(=O)N[C@@H](CCCCN)C(N)=O)C(C)C)C(C)C [GLFDIVKKVLKLLK]
MIC [5]: 20 µM (≈ 32.3 µg/mL)
MIC [6]: 20 µM (≈ 32.3 µg/mL)
MIC [7]: 3.3 µM (≈ 5.32 µg/mL)
MIC [1]: > 20 µM
MIC [2]: > 20 µM
MIC [8]: > 20 µM
MIC [9]: > 20 µM
MIC [10]: > 20 µM

SMILES: CC[C@H](C)[C@H](NC(=O)[C@H](C)NC(=O)CNC(=O)[C@H](Cc1ccccc1)NC(=O)[C@H](CC(C)C)NC(=O)CN)C(=O)N[C@@H](C)C(=O)NCC(=O)N[C@@H](Cc1ccccc1)C(=O)N[C@H](C(=O)N[C@@H](CCCCN)C(=O)N[C@@H](CC(N)=O)C(=O)NCC(=O)N[C@@H](Cc1c[nH]c2ccccc12)C(=O)N[C@@H](CCCCN)C(=O)NCC(=O)N[C@@H](CCSC)C(=O)N[C@H](C(=O)N[C@@H](CCCCN)C(=O)NCC(N)=O)[C@@H](C)CC)[C@@H](C)CC [GLFGAIAGFIKNGWKGMIKG]
MIC [23]: 3.8 µM (≈ 7.85 µg/mL)
MIC [2]: 3.8 µM (≈ 7.85 µg/mL)
MIC [8]: 7.6 µM (≈ 15.7 µg/mL)
MIC [21]: 1.9 µM (≈ 3.92 µg/mL)

The remaining lines, values ahead:

MIC [11]: 4.4 µM (≈ 17 µg/mL)
MIC [2]: 2.8 µM (≈ 10.8 µg/mL)
SMILES: CC[C@H](C)[C@H](NC(=O)CN)C(=O)N[C@@H](Cc1ccccc1)C(=O)N[C@H](C(=O)N[C@@H](CC(C)C)C(=O)N[C@@H](Cc1ccccc1)C(=O)N[C@@H](CCCCN)C(=O)NCC(=O)N[C@@H](C)C(=O)N[C@@H](C)C(=O)N[C@@H](CCCCN)C(=O)N[C@@H](CC(C)C)C(=O)N[C@@H](CC(C)C)C(=O)NCC(=O)N[C@@H](CCCCN)C(=O)N[C@H](C(=O)N[C@@H](CC(C)C)C(=O)N[C@@H](C)C(=O)N[C@@H](CCCCN)C(=O)N[C@@H](CCC(=O)O)C(=O)N[C@@H](C)C(=O)NCC(=O)N[C@@H](CCCCN)C(=O)N[C@H](C(=O)NCC(=O)N[C@@H](CC(C)C)C(=O)N[C@@H](CCC(=O)O)C(=O)N[C@@H](CC(C)C)C(=O)N[C@@H](CCSC)C(=O)N[C@@H](C)C(=O)N[C@H]1CSSC[C@@H](C(=O)O)NC(=O)[C@H](CCC(N)=O)NC(=O)[C@H](CC(N)=O)NC(=O)[C@H]([C@@H](C)O)NC(=O)[C@H](C(C)C)NC(=O)[C@H](CCCCN)NC1=O)[C@@H](C)O)[C@@H](C)O)[C@@H](C)O [GIFTLFKGAAKLLGKTLAKEAGKTGLELMACKVTNQC]

MIC [12]: 3.1 µM (≈ 6.46 µg/mL)
MIC [13]: ≥ 40 µM
MIC [14]: ≥ 50 µM
MIC [15]: 15 µM (≈ 31.2 µg/mL)
MIC [8]: 25 µM (≈ 52.1 µg/mL)
MIC [16]: 1.5 µM (≈ 3.12 µg/mL)
MIC [17]: 15 µM (≈ 31.2 µg/mL)
SMILES: CC[C@H](C)[C@H](N)C(=O)N[C@H](C(=O)N[C@@H](CCCCN)C(=O)N[C@H](C(=O)N[C@H](C(=O)N[C@H](C(=O)N[C@@H](CCCCN)C(=O)N[C@@H](CC(C)C)C(=O)N[C@@H](CC(C)C)C(=O)N[C@@H](CC(N)=O)C(=O)N[C@@H](CCCN=C(N)N)C(=O)N[C@@H](CC(C)C)C(=O)N[C@H](C(=O)N[C@@H](CCCCN)C(=O)N[C@H](C(=O)N[C@@H](CC(C)C)C(=O)N[C@@H](CO)C(=O)N[C@@H](CCCCN)C(=O)O)[C@@H](C)CC)[C@@H](C)O)[C@@H](C)O)[C@@H](C)CC)C(C)C)[C@@H](C)O [ITKVITKLLNRLTKILSK]

MIC [12]: 3.1 µM (≈ 6.83 µg/mL)
MIC [13]: 20.8 µM (≈ 45.9 µg/mL)
MIC [14]: 12.5 µM (≈ 27.6 µg/mL)
MIC [15]: > 50 µM
MIC [8]: 3.1 µM (≈ 6.83 µg/mL)
MIC [16]: 1.05 µM (≈ 2.32 µg/mL)
MIC [17]: 4.2 µM (≈ 9.26 µg/mL)
SMILES: CC[C@H](C)[C@H](N)C(=O)N[C@@H](CCC(N)=O)C(=O)N[C@@H](CCCCN)C(=O)N[C@H](C(=O)N[C@H](C(=O)N[C@@H](CCC(N)=O)C(=O)N[C@@H](CCCCN)C(=O)N[C@@H](CC(C)C)C(=O)N[C@@H](CC(C)C)C(=O)N[C@@H](CC(N)=O)C(=O)N[C@@H](CCCN=C(N)N)C(=O)N[C@@H](CC(C)C)C(=O)N[C@@H](CCC(N)=O)C(=O)N[C@@H](CCCCN)C(=O)N[C@H](C(=O)N[C@@H](CC(C)C)C(=O)N[C@@H](CCC(N)=O)C(=O)N[C@@H](CCCCN)C(=O)O)[C@@H](C)CC)[C@@H](C)CC)C(C)C [IQKVIQKLLNRLQKILQK]

MIC [11]: 3.01 µM (≈ 9.79 µg/mL)
MIC (Escherichia coli O111): 6.01 µM (≈ 19.6 µg/mL)
MIC [2]: 3.01 µM (≈ 9.79 µg/mL)
MIC [17]: 19.6 µM (≈ 64 µg/mL)
SMILES: CC[C@H](C)[C@H](NC(=O)CNC(=O)[C@H](CCC(=O)O)NC(=O)[C@H](Cc1c[nH]c2ccccc12)NC(=O)[C@@H](NC(=O)[C@@H](N)CO)[C@@H](C)CC)C(=O)N[C@@H](CCCCN)C(=O)N[C@@H](CC(N)=O)C(=O)N[C@@H](C)C(=O)NCC(=O)N[C@@H](CCCCN)C(=O)NCC(=O)N[C@@H](Cc1ccccc1)C(=O)N[C@@H](CC(C)C)C(=O)N[C@H](C(=O)N[C@@H](CO)C(=O)N[C@H](C(=O)N[C@@H](CC(C)C)C(=O)N[C@@H](CC(=O)O)C(=O)N[C@@H](CCCCN)C(=O)N[C@H](C(=O)N[C@@H](CCCN=C(N)N)C(=O)N[C@H]1CSSC[C@@H](C(=O)N[C@@H](CC(N)=O)C(=O)N2CCC[C@H]2C(=O)O)NC(=O)CNC(=O)CNC(=O)[C@H](C)NC(=O)[C@H](C(C)C)NC(=O)[C@H](CCCCN)NC1=O)C(C)C)[C@@H](C)CC)C(C)C [SIWEGIKNAGKGFLVSILDKVRCKVAGGCNP]
